According to patent US20250214969A1, “PROTEIN DEGRADERS AND USES THEREOF” (Kymera Therapeutics, Inc., priority 2022, published 2025):

Key:
[1] = molecular target: T1, truncated His-MBP-Tev-KLHDC2 (residues 1-363) (Homo sapiens, UniProt Q9Y2U9); test: KLHDC2 FP competition binding assay; settings: 15 nM KLHDC2 (residues 1-363), 10 nM fluorescein-labeled diglycine peptide probe, read-out: KLHDC2 binding Human FP: average external IC50
T1 construct: truncated His -MBP-Tev-KLHDC2 (residues 1-363) purified from E. coli; made in house; host or cells: E. coli
T1 sequence (Q9Y2U9 1-363): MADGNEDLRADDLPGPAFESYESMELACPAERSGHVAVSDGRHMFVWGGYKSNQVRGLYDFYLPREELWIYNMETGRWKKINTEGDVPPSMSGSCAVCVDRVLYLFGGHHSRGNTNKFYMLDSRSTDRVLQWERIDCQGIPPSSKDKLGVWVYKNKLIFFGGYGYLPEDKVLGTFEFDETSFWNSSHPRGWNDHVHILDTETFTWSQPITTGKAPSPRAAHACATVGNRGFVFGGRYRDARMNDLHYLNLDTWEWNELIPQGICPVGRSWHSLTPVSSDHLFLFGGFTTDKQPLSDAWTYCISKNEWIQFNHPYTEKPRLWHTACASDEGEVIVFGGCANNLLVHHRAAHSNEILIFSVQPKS

[2] = molecular target: T1, truncated His-MBP-Tev-KLHDC2 (residues 1-363); test: KLHDC2 HTRF binding assay; settings: 1 nM KLHDC2 (residues 1-363), fluorescein-labeled diglycine peptide probe

SMILES	IC50 [1] [µM]	IC50 [2] [µM]
O=C(O)Cn1cc(NC(=O)COc2cccnc2)ccc1=O [I-250]	> 5	> 5
O=C(O)Cn1cc(NC(=O)c2cccc(-c3ccccc3F)c2)ccc1=O [I-288]	> 5	> 5
O=C(O)Cc1cc(NC(=O)c2cccc(-c3cccnc3)c2)ccc1Cl [I-60]	> 5	0.5 to 5
Cc1sc2c(c1C)C(c1ccc(Cl)cc1)=N[C@@H](CC(=O)NCCCCCCc1ccncc1-c1cccc(C(=O)Nc3ccc(=O)n(CC(=O)O)c3)c1)c1nnc(C)n1-2 [I-475]	< 0.05	0.05 to 0.5
Cc1cc(C(=O)Nc2ccc(=O)n(CC(=O)O)c2)sc1-c1ccccc1 [I-297]	> 5	0.5 to 5
Cn1ccc2c(C(=O)Nc3ccc(=O)n(CC(=O)O)c3)cccc21 [I-145]	> 5	0.5 to 5
CC(C)(C)OC(=O)NCCCCCCc1ccncc1-c1cccc(C(=O)Nc2ccc(=O)n(CC(=O)O)c2)c1 [I-164]	0.5 to 5	0.05 to 0.5
O=C(O)C1CC(=O)N(Cc2ccc(Cl)cc2)C1 (centres unmarked) [I-221]	> 5	> 5
O=C(Nc1ccc(=O)n([C@@H](F)C(=O)O)c1)c1cccc(-c2cccnc2)c1 [I-51]	> 5	0.5 to 5
O=C(O)Cc1cc(NC(=O)c2cccc(-c3cccnc3)c2)ccc1F [I-55]	> 5	0.5 to 5
CCc1cncc(N2CCC[C@H](C(=O)Nc3ccc(Cl)c(CC(=O)O)c3)C2)c1 [I-21]	0.5 to 5	0.05 to 0.5
O=C(O)Cn1cc(-c2cccc(CCc3ccccc3)c2)ccc1=O [I-295]	> 5	> 5
Cc1cc(=O)n(CC(=O)O)cc1NC(=O)[C@H]1CCCN(c2cccnc2)C1 [I-84]	0.5 to 5	0.05 to 0.5
O=C(O)Cn1cc(NC(=O)CCCc2ccc(C3CC3)cc2)ccc1=O [I-239]	> 5	0.5 to 5
O=C(O)Cn1cc(-c2cccc(CO)c2)ccc1=O [I-291]	> 5	> 5
CC(C)(C)OC(=O)NCCCCCCc1cncc(-c2cccc(C(=O)Nc3ccc(=O)n(CC(=O)O)c3)c2)c1 [I-169]	0.05 to 0.5	< 0.05
O=C(O)Cn1cc(NC(=O)[C@H]2C[C@H](C(F)(F)F)CN(c3cccnc3)C2)ccc1=O [I-64]	0.5 to 5	0.05 to 0.5
O=C(O)Cn1cc(NC(=O)c2ccc(-c3cccnc3)s2)ccc1=O [I-205]	> 5	> 5
CC(C)Cn1ccc2c(C(=O)Nc3ccc(=O)n(CC(=O)O)c3)cccc21 [I-238]	> 5	0.05 to 0.5
NCCCCCCc1cncc(-c2cccc(C(=O)Nc3ccc(=O)n(CC(=O)O)c3)c2)c1 [I-167]	0.5 to 5	0.05 to 0.5
Cc1cccc(-c2cccc(C(=O)Nc3ccc(=O)n(CC(=O)O)c3)c2)c1 [I-294]	> 5	> 5
O=C(O)Cn1cc(NC(=O)CCNC(=O)c2ccc3ccccc3c2)ccc1=O [I-190]	> 5	> 5

SMILES	IC50 [1] [µM]	IC50 [2] [µM]
O=C(O)Cn1cc(CNC(=O)c2ccccc2)ccc1=O [I-299]	> 5	> 5
CCOC(=O)Cn1cc(NC(=O)c2cccc(-c3cccnc3)c2)ccc1=O [I-98]	> 5	> 5
O=C(O)CN1CC(NC(=O)c2cccc(-c3ccccc3)c2)CCC1=O (centres unmarked) [I-206]	> 5	> 5
O=C(O)Cn1cc(N2C[C@]3(CCCN(c4cccnc4)C3)CC2=O)ccc1=O [I-16]	> 5	> 5
NCCCCCCc1cccc2c(-c3cccc(C(=O)Nc4ccc(=O)n(CC(=O)O)c4)c3)cncc12 [I-110]	> 5	0.05 to 0.5
O=C(O)Cn1cc(N2CC[C@]3(CCCN(c4cccnc4)C3)C2=O)ccc1=O [I-15]	> 5	0.05 to 0.5
O=C(O)Cn1cc(NC(=O)c2cccc(-c3cccs3)c2)ccc1=O [I-172, 2-(2-oxo-5-(3-(thiophen-2-yl)benzamido)pyridin-1 (2H)-yl) acetic acid]	> 5	> 5
CC1(C)CCc2c(C(=O)Nc3ccc(=O)n(CC(=O)O)c3)csc2C1 [I-234]	> 5	0.5 to 5
O=C(O)Cn1cc(NC(=O)c2cccc(-c3cccnc3)c2)c(C2CC2)cc1=O [I-62]	> 5	0.5 to 5
O=C(O)Cn1cc(NC(=O)c2ccc3cc(Cl)ccc3c2)ccc1=O [I-177]	> 5	0.5 to 5
COc1cc(-c2ccccc2)ccc1C(=O)Nc1ccc(=O)n(CC(=O)O)c1 [I-203]	0.5 to 5	0.5 to 5
COc1cc(-c2cccs2)ccc1C(=O)Nc1ccc(=O)n(CC(=O)O)c1 [I-153]	0.5 to 5	0.5 to 5
O=C(O)Cn1cc(NC(=O)COc2ccccc2F)ccc1=O [I-279]	> 5	> 5
COc1cncc(N2CCC[C@H](C(=O)Nc3ccc(=O)n(CC(=O)O)c3)C2)c1 [I-45]	0.05 to 0.5	< 0.05
CCOC(=O)Cn1cc(NC(=O)c2cccc(-c3cncc(CCCCCCNC(=O)OC(C)(C)C)c3)c2)ccc1=O [I-158]	> 5	> 5
O=C(O)CN1CC(NC(=O)c2ccccc2)CCC1=O (centres unmarked) [I-271]	> 5	> 5
O=C(O)Cn1cc(NC(=O)c2occc2CN2C(=O)Cc3ccccc32)ccc1=O [I-242]	> 5	0.5 to 5
Cc1ccc2cc(C(=O)Nc3ccc(=O)n(CC(=O)O)c3)c(C)nc2c1 [I-191]	> 5	> 5
COc1ccccc1OCC(=O)Nc1ccc(=O)n(CC(=O)O)c1 [I-273]	> 5	> 5
O=C(O)CC1NC(=O)c2ccccc21 (centres unmarked) [I-231]	> 5	> 5
CCc1ccc(C(=O)Nc2ccc(=O)n(CC(=O)O)c2)cc1-c1ccccc1 [I-182]	> 5	0.5 to 5
O=C(O)Cn1cc(NC(=O)COc2cccc(C(F)(F)F)c2)ccc1=O [I-252]	> 5	> 5

Second part, the compound after the results:

IC50 [1] [µM]	IC50 [2] [µM]	SMILES
> 5	> 5	O=C(O)Cc1cccc(NC(=O)c2ccccc2)c1 [I-325]
> 5	> 5	O=C(O)Cc1cc(-c2ccccc2)ccc1O [I-335]
> 5	> 5	COc1ccc(C#N)cc1-c1ccc(=O)n(CC(=O)O)c1 [I-341]
> 5	> 5	CS(=O)(=O)c1cccc(-c2ccc(=O)n(CC(=O)O)c2)c1 [I-385]
> 5	> 5	O=C(O)Cn1cc(C(=O)Nc2ccccc2)ccc1=O [I-374]
> 5	0.5 to 5	O=C(O)Cn1cc(NC(=O)c2cccc(-c3ccccc3)c2)ccc1=O [I-315]
> 5	> 5	Cc1ccccc1-c1ccc(O)c(CC(=O)O)c1 [I-336]
> 5	> 5	Cc1cc(C)cc(-c2ccc(=O)n(CC(=O)O)c2)c1 [I-408]
> 5	0.5 to 5	Nc1ccc(F)c2c(O)n[nH]c12 [I-427]
> 5	> 5	Cc1ccc(C)c(-c2cccn(CC(=O)O)c2=O)c1 [I-390]
> 5	> 5	Cc1cc(OCc2ccccc2)ccc1-c1ccc(=O)n(CC(=O)O)c1 [I-366]
> 5	> 5	NC(=O)Cc1ccc(-c2ccc(=O)n(CC(=O)O)c2)cc1 [I-313]
> 5	> 5	O=C(O)Cn1cc(-c2cccc(O)c2)ccc1=O [I-368]
> 5	> 5	O=C(O)Cn1cc(-c2ccc3[nH]ncc3c2)ccc1=O [I-387]
> 5	> 5	Cc1ccc(Cl)cc1-c1ccc(=O)n(CC(=O)O)c1 [I-401]
> 5	> 5	CCc1ccccc1C(=O)Nc1ccc(=O)n(CC(=O)O)c1 [I-318]
> 5	> 5	COc1c(F)cc(-c2ccc(=O)n(CC(=O)O)c2)cc1F [I-347]
> 5	> 5	Cc1cc(=O)n(CC(=O)O)cc1-c1cc(F)c(O)c(F)c1 [I-329]
> 5	> 5	O=C(O)Cn1cc(NS(=O)(=O)c2ccccc2)ccc1=O [I-317]
> 5	> 5	O=C(O)Cn1cc(CC(=O)Nc2ccccc2)ccc1=O [I-306]
> 5	> 5	COc1ccc(-c2ccc(=O)n(CC(=O)O)c2)cn1 [I-327]
> 5	> 5	Cc1cc(-c2ccc(=O)n(CC(=O)O)c2)c(C)cc1O [I-360]
> 5	> 5	O=C(O)Cn1cc(N2CCOCC2)ccc1=O [I-355]
> 5	> 5	Cc1cc(-c2ccc(=O)n(CC(=O)O)c2)ccc1OCc1ccccc1 [I-323]
> 5	> 5	O=C(O)Cn1cc(-c2cncc(OCc3ccccc3)c2)ccc1=O [I-301]
> 5	> 5	O=C(O)Cn1cc(-c2cc(F)cc(F)c2)ccc1=O [I-371]
> 5	> 5	Nc1ccc(-c2ccc(=O)n(CC(=O)O)c2)cc1 [I-332]
> 5	> 5	O=C(O)Cn1cc(C(F)(F)F)ccc1=O [I-429]
> 5	> 5	O=C(O)Cn1cc(-c2cccc(Cl)c2)ccc1=O [I-375]
